Experimental data from patent US12529701B2, “Method for predicting sensitivity of cancer cell to GPX4 inhibitor” (Chugai Seiyaku Kabushiki Kaisha, priority 2019, dated 2026).

Experiments:
[1] = system: cancer cell lines shown in Table 4; test: Test for inhibition of activity of GPX4 1 (cell growth inhibition under a GPX4 inhibitor); assay type: cell-based, human; settings: cancer cell having a suppressed function of SMARCA4
Procedure: In each cancer cell line, cell growth inhibition activity under a GPX4 inhibitor was evaluated. As the GPX4 inhibitor, ML210 (CAS No: 1360705-96-9) which is a low-molecular GPX4 inhibitor reported to be a compound inhibiting the enzymatic activity of GPX4:
These compounds were each added, and each cell line was seeded at 100 μL/well so as to attain the seeding density (2) shown in Table 5 below. The cells were cultured for 7 days, the intracellular ATP which is a marker for cell survival was then measured using Cell Titer-Glo 2.0 Cell Viability Assay (manufactured by Promega Corporation), and the cell survival rate was calculated, where the intracellular ATP level in each cancer cell line given only a solvent (dimethyl sulfoxide (DMSO) or water) for the compound and cultured for 7 days was defined as 100%.

SK-HEP-1 tumor = test: Test for drug efficacy of ML210 on SK-HEP-1 tumor-bearing mouse; assay type: in vivo, BALB/c-nu/nu mice; settings: SK-HEP-1 tumor-bearing mice; oral, once a day, 100 mg/kg from day 11; measured days 11, 14 and 18; versus vehicle; FIG. 9
Procedure: For examining the efficacy of the GPX4 inhibitor on SWI/SNF complex factor-deficient cancer in vivo, a test was conducted in which ML210 was administered to mice in which SK-HEP-1 (human cancer cell line suppressing a function of SMARCA4) was transplanted (SK-HEP-1 tumor-bearing mice). […]
Subsequently, to mice (SK-HEP-1 tumor-bearing mice) for which the engraftment of the tumor (cancer cell) had been confirmed, a dosing liquid obtained by suspending ML210 at a predetermined concentration in a mixed liquid of 10% dimethyl sulfoxide (manufactured by Wako Company, product code: 043-07216), 10% Cremophor (manufactured by Sigma-Aldrich Co. LLC, product code: C5135), 15% polyethylene glycol 400 (manufactured by Wako Company, product code: 161-09065) and 15% hydroxypropyl-β-cyclodextrin (manufactured by Nihon Shokuhin Kako Co., Ltd., product code: 7585-39-9) was orally administered at a predetermined dose (20 mL/kg) once a day to a daily dosage of 100 mg/kg upon the confirmation of the implantation. The day of inoculation of SK-HEP-1 was defined as day 0, administration of ML210 was started on day 11, and the volume of the tumor was measured on days 11, 14 and 18. The minor diameter and the major diameter of the tumor were measured using an electronic caliper (manufactured by Mitutoyo Corporation, product code: CD-15AX), and the volume of the tumor was calculated by the […].

SMILES	cell death and cell growth suppression [1]	volume of the tumor (SK-HEP-1 tumor)
Cc1onc(C(=O)N2CCN(C(c3ccc(Cl)cc3)c3ccc(Cl)cc3)CC2)c1[N+](=O)[O-] [ML210]	markedly suppress cell growth	an increase in volume of the tumor was suppressed as compared to the group given the vehicle
COC(=O)c1ccc([C@H]2c3[nH]c4ccccc4c3C[C@H](C(=O)OC)N2C(=O)CCl)cc1 [RSL3]	markedly suppress cell growth	–
